Measured values as given in patent US11679107B2 (Eisai R&D Management Co., Ltd., priority 2018, dated 2023).
Like-named read-outs stand apart in the source and are kept apart here.

Assays:
[1] = system: NCI-H1568 cells (high MCL1); assay: Cell proliferation and viability, CellTiter-Glo, 72 hours; assay type: cell-based; conditions: for GI50: geometric mean
Method: Cell lines were maintained in RPMI-1640 (ATCC 30-2001) supplemented with 10% fetal bovine serum (FBS). The Panc lines were supplemented in addition with insulin and FBS up to 15% total.
Compounds for assay were prepared as stocks in 90% dimethyl sulfoxide (DMSO), assessed for purity by LC/MS, and serially diluted in DMSO using a low-volume liquid handler (VIAFLO ASSIST and VIAFLO II electronic 16-channel pipette, 0.5-12.5 μL) in an 11-point half-log serial dilution to create a master dose response (MDR) source used for all tests.
Transfer of compounds from the MDR source plate to cell assay-ready plates were accomplished directly by low-energy acoustic transfer (ATS100, EDC Biosystems). After transfer of compounds to the assay plate, the dose-response range experienced by cells was typically 10 μM-100 pM (5 logs), and final DMSO concentration in the assay was 0.1%, uniformly. Each assay plate was self-anchored containing vehicle/DMSO negative controls, medium-only/positive controls, and cidal control dose-responses of bortezomib and staurosporine. Assay-ready plates were heat-sealed and stored at −20° C. until used, no longer than one month.
A DMSO-matched time zero (T0) plate was read and then all other plates were incubated at 37° C. with 5% CO2 and 95% relative humidity until the end of assay. Cell proliferation and viability assays were performed 72 hours post-treatment depending on cell growth where at least one doubling would have occurred.
Assessment of viability and proliferation was by measurement of cell ATP content using CellTiter-Glo® Luminescent Cell Viability Assay reagent (Promega) according to the manufacturer's instructions (CellTiter-Glo® Luminescent Cell Viability Assay Technical Bulletin Instructions for Use of Product(s) G7570, G7571, G7572, G7573 Literature #TB288, Revised March 2015), using a microtiter plate reader (Envision, PE).
Cell proliferation was evaluated using the time zero (T0) signal as the positive control and the within-plate vehicle wells (DMSO) as the negative control. Data was converted to percent inhibition and falls into the range from −100% to 100% of growth where −100% equals a cidal response and 100% equals uninhibited or maximal growth. Cell growth at or near 0% is considered a static response.

SF3b complexes = target: T1, SF3b complexes (Homo sapiens, UniProt O75533+Q7RTV0); assay: Scintillation proximity assay (SPA) with [3H]-labelled pladienolide probe; assay type: binding; conditions: SF3B1 (WT); geometric mean; read-out: SPA-ATS GMean IC50 (nM) SF3B1 (WT)
T1 construct: endogenous in cells; host or cells: Nuclear extracts; A HeLa S3 extract preparation is described for the in vitro splicing assay
Method: Scintillation Proximity Assay (SPA) with [^3-H]-Labelled Pladienolide Probe
(§1) Batch immobilization of anti-SF3B1 antibody (MBL) to anti-mouse PVT SPA scintillation beads (PerkinElmer) was prepared as follows: for every 2.5 mg of nuclear extracts, 5 μg anti-SF3B1 antibody and 1.5 mg of beads were mixed in 150 μl PBS. The antibody-bead mixture was incubated for 30 min at RT and centrifuged at 18,000 g for 5 min. 150 μl PBS was used to resuspend every 1.5 mg antibody-bead mixture. The beads were suspended and added to the prepared nuclear extracts. The slurry was incubated for 2 h at 4° C. with gentle mixing. The beads were then collected by centrifuging at 18,000 g for 5 min, and washed twice with PBS+0.1% Triton X-100. After a final centrifugation step, every 1.5 mg of beads was suspended with 150 μl of PBS. The SF3b complexes were tested for [^3H]-labelled pladienolide probe binding ([^3H]—PB), synthesized as previously described (Kotake et al., 2007). 100 μl binding reactions were prepared with 50 μl bead slurry and by adding varying concentrations of PB or PB—OH, and after 30 min pre-incubation, 2.5 nM [^3H]—PB was added. The mixture was incubated for 30 min, and luminescence signals were read using a MicroBeta2 Plate Counter (PerkinElmer). Prism 6 (Graphpad) was used for non-linear regression curve fitting of the data. • a. • b. HeLa nuclear extract preparation (for in vitro splicing modulation assay below) • c. HeLa S3 cell pellets were resuspended in hypotonic buffer (10 mM HEPES pH 7.9, 1.5 mM MgCl2, 10 mM KCl, 0.2 mM PMSF, and 0.5 mM DTT) and the suspension was brought up to a total of 5 packed cell volume (PCV). After centrifugation, the supernatant was discarded, and the cells were brought up to 3 PCV with hypotonic buffer and incubated on ice for 10 minutes. Cells were lysed using a dounce homogenizer and then centrifuged. The supernatant was discarded, and the pellet was resuspended with ½ packed nuclear volume (PNV) of low salt buffer (20 mM HEPES pH 7.9, 1.5 mM MgCl2, 20 mM KCl, 0.2 mM EDTA, 25% glycerol, 0.2 mM PMSF, 0.5 mM DTT), followed by ½ PNV of high salt buffer (same as low salt buffer except 1.4 M KCl was used). The nuclei were gently mixed for 30 minutes before centrifuging. The supernatant (nuclear extract) was then dialyzed into storage buffer (20 mM HEPES pH 7.9, 100 mM KCl, 0.2 mM EDTA, 20% glycerol, 0.2 mM PMSF, 0.5 mM DTT). Protein concentration was determined using NanoDrop 8000 UV-Vis spectrophotometer (ThermoFisher Scientific). • d. In vitro splicing assay (IVS)

[2] = system: Ad2 variant pre-mRNAs spliced in HeLa S3 nuclear extracts; assay: In vitro splicing assay (IVS), RT-qPCR of spliced product; assay type: biochemical; conditions: for IC50: geometric mean; for Ratio Ad2.1/2.2: ratio of IVS IC50 Ad2.1 to Ad2.2
Method: as §1
All Ad2-derived (Pellizzoni et al., 1998) sequences were cloned into pcDNA3.1(+) vector (Promega) using 5′ EcoRI and 3′ XbaI restriction sites. The plasmids were linearized using XbaI and used as DNA templates in the in vitro transcription reactions. The FtzΔi intron-less plasmid (Luo and Reed, 1999) was linearized using EcoRI. All RNAs were in vitro transcribed and then purified using MEGAScript T7 (Invitrogen) and MegaClear (Invitrogen) kits, respectively. For splicing reactions using Ad2 variant pre-mRNAs, […] reactions were prepared using 8 μg nuclear extracts prepared from HeLa S3, 2 ng pre-mRNA, 0.2 ng FTZΔi, and varying concentrations of exemplary payloads or DMSO. After a 15 minute pre-incubation at 30° C., 1 μL splicing activation buffer (0.5 mM ATP, 20 mM creatine phosphate, 1.6 mM MgCl2) was added, and the reactions were incubated for 90 minutes at 30° C. The reactions were then quenched with 13 μL it DMSO, and 25 nL was used for RT-qPCR. RT-qPCR reactions were prepared using TaqMan RNA-to-CT 1-step kit (Life Technologies), RNA from splicing reactions, Ad2 (forward: […]; reverse: […]; probe: […]) and Ftz (forward: […]; reverse: […]; probe: […]) mRNA primer-probe sets. Prism 6 (Graphpad) was used for non-linear regression curve fitting of the formed spliced product and normalized to the control (DMSO) sample.

[3] = NCI-H1568, read-out: CTGlo-ATS GMean GI50 (nM) 72 h NCIH1568.1, NCIH1568.1 cells, 72 h
[4] = NCIH1568.1 cells, 72 h, −100% cidal, 0% static, 100% maximal growth
[5] = Ad2.1 pre-mRNA substrate, read-out: qPCR-IVS-ATS GMean IC50 (nM) Ad2.1
[6] = Ad2.2 pre-mRNA substrate, read-out: qPCR-IVS-ATS GMean IC50 (nM) Ad2.2
[7] = 72 h, NCIH1568.1, -100% = cidal, 0% = static, 100% = uninhibited growth
[8] = NCI-H1568, read-out: CTGlo-ATS GMean GI50 (nM) 72 h NCIH1568.1, 72 h, NCIH1568.1
[9] = NCI-H1568, 72 h, read-out: CTGlo-ATS GMean GI50 (nM) 72 h NCIH1568.1, NCIH1568.1 cells, 72 h

Row | Compound | GI50 [1, 3] [nM] | CTGlo-ATS Mean MinResponse % 72 h NCIH1568.1 [1, 4] [%] | IC50 (SF3b complexes) [nM] | IC50 [2, 5] [nM] | IC50 [2, 6] [nM] | CTGlo-ATS Mean MinResponse % 72 h NCIH1568.1 [1, 7] [%] | GI50 [1, 8] [nM] | Ratio Ad2.1/2.2 [2] | GI50 [1, 9] [nM]
1 | C/C(=C\c1cc(F)cc(N(C)C2CCN(S(=O)(=O)c3ccccc3)CC2)c1)[C@H]1OC(=O)C[C@H](O)CC[C@H](C)[C@@H](OC(=O)N2CCN(C)CC2)/C=C/[C@@H]1C [Compound 185] | 114 | −99.538 | 186 | 543 | 46.6 | – | – | – | –
2 | C/C(=C\c1cc(F)cc(N(C(C)C)C2CCN(S(C)(=O)=O)CC2)c1)[C@H]1OC(=O)C[C@H](O)CC[C@H](C)[C@@H](OC(=O)N2CCN(C)CC2)/C=C/[C@@H]1C [Compound 176] | 19 | −88.183 | 38.5 | 49.7 | 31.2 | – | – | – | –
3 | C/C(=C\c1cc(F)cc(N2CCN(C(=O)Cn3cccn3)CC2)c1)[C@H]1OC(=O)C[C@H](O)CC[C@H](C)[C@@H](OC(=O)N(C)C2CCN(C)CC2)/C=C/[C@@H]1C [Compound 233, [(2S,3S,4E,6R,7S,10R)-2-[(E)-1-[3-fluoro-5-[4-(2-pyrazol-1-ylacetyl)piperazin-1-yl]phenyl]prop-1-en-2-yl]-10-hydroxy-3,7-dimethyl-12-oxo-1-oxacyclododec-4-en-6-yl] N-methyl-N-(1-methylpiperidin-4-yl)carbamate] | – | – | 2.46 | 5.87 | 6.05 | −87.288 | 1.98 | 0.971 | –
4 | C/C(=C\c1cc(F)cc(N2CCN(C(=O)Cn3cccn3)CC2)c1)[C@H]1OC(=O)C[C@H](O)CC[C@H](C)[C@@H](OC(=O)N2CCNC(=O)C2)/C=C/[C@@H]1C [Compound 230, [(2S,3S,4E,6R,7S,10R)-2-[(E)-1-[3-fluoro-5-[4-(2-pyrazol-1-ylacetyl)piperazin-1-yl]phenyl]prop-1-en-2-yl]-10-hydroxy-3,7-dimethyl-12-oxo-1-oxacyclododec-4-en-6-yl] 3-oxopiperazine-1-carboxylate] | – | – | 12.9 | 11.7 | 10.9 | −69.108 | 15.9 | 1.078 | –
5 | C/C(=C\c1cc(F)cc(N(C)C2CCN(S(=O)(=O)c3cn(C)cn3)CC2)c1)[C@H]1OC(=O)C[C@H](O)CC[C@H](C)[C@@H](OC(=O)N2CCN(C)CC2)/C=C/[C@@H]1C [Compound 184] | 59.8 | −85.535 | 14.4 | 18.1 | 11.6 | – | – | – | –
6 | C/C(=C\c1cc(F)cc(N(C)C2CCN(C(=O)c3cn(C)cn3)CC2)c1)[C@H]1OC(=O)C[C@H](O)CC[C@H](C)[C@@H](OC(=O)N2CCN(C)CC2)/C=C/[C@@H]1C [Compound 190] | 19.8 | −69.142 | 6.55 | 33.5 | 15.7 | – | – | – | –
7 | C/C(=C\c1cc(F)cc(NC2CCN(S(C)(=O)=O)CC2)c1)[C@H]1OC(=O)C[C@H](O)CC[C@H](C)[C@@H](OC(=O)N2CCN(C)CC2)/C=C/[C@@H]1C [Compound 173] | – | −79.437 | 21 | 88.1 | 28.4 | – | – | – | 15.2
8 | C/C(=C\c1cc(F)cc(N(C)C2CCN(C(=O)c3cnccn3)CC2)c1)[C@H]1OC(=O)C[C@H](O)CC[C@H](C)[C@@H](OC(=O)N2CCN(C)CC2)/C=C/[C@@H]1C [Compound 189] | 9.53 | −76.052 | 6.8 | 16.9 | 10.3 | – | – | – | –
9 | C/C(=C\c1cc(F)c2nnn([C@H]3CCCOC3)c2c1)[C@H]1OC(=O)C[C@H](O)CC[C@H](C)[C@@H](OC(=O)N2CCN(C)CC2)/C=C/[C@@H]1C [Compound 162] | 1.47 | −75.943 | 1.08 | 9.29 | 7.4 | – | – | – | –
10 | C/C(=C\c1cc(F)cc(N2CCN(C(=O)[C@@H](C)O)CC2)c1)[C@H]1OC(=O)C[C@H](O)CC[C@H](C)[C@@H](OC(=O)N2CCN(C)CC2)/C=C/[C@@H]1C [Compound 81] | 2.18 | −83.963 | 2.59 | 9.07 | 4.95 | – | – | – | –
11 | C/C(=C\c1cc(F)c2nnn(C3(C)CCOCC3)c2c1)[C@H]1OC(=O)C[C@H](O)CC[C@H](C)[C@@H](OC(=O)N2CCN(C)CC2)/C=C/[C@@H]1C [Compound 156] | – | −87.369 | 3.95 | 8.37 | 7.91 | – | – | – | 1.27
12 | C/C(=C\c1cc(F)cc(N(C)C2CCN(S(=O)(=O)C3CCCC3)CC2)c1)[C@H]1OC(=O)C[C@H](O)CC[C@H](C)[C@@H](OC(=O)N2CCN(C)CC2)/C=C/[C@@H]1C [Compound 183] | – | −66.270 | 66.3 | 713 | 20.3 | – | – | – | 53.6
